Test results published in US8633177B2, “Nitroxyl (HNO) releasing compounds and uses thereof in treating diseases” (The United States of America, as represented by the …, priority 2010, dated 2014).

Key:
A549 cells = test: MTT proliferation assay, A549 cells; assay type: cell-based; settings: 48 h
Experimental: The effect of compounds 4 and 8 was studied on proliferation of A549 cells by 3-(4,5-Dimethylthiazol-2-yl)-2,5-diphenyltetrazolium bromide (MTT) assay. Cells were plated at a concentration of 10,000 cells per well in a 96 well plate and grown overnight. Then the cells were treated with different concentration of the compounds and controls for 48 h. After 48 h, a solution of 2 mg/ml MTT was added to each well and incubated for 1 hr. The media was then removed from each well and 100 μL DMSO was added to each well and the absorbance was recorded at 550 nm.

[1] = biological target: glyceraldehyde-3-phosphate dehydrogenase (GAPDH) (Homo sapiens, UniProt P04406); test: GAPDH activity in A549 cells (KDalert); assay type: cell-based; set-up: GAPDH activity in A549 cells at different time points; endogenous in cells; host or cells: A549
Sequence of glyceraldehyde-3-phosphate dehydrogenase (GAPDH) (P04406 whole entry): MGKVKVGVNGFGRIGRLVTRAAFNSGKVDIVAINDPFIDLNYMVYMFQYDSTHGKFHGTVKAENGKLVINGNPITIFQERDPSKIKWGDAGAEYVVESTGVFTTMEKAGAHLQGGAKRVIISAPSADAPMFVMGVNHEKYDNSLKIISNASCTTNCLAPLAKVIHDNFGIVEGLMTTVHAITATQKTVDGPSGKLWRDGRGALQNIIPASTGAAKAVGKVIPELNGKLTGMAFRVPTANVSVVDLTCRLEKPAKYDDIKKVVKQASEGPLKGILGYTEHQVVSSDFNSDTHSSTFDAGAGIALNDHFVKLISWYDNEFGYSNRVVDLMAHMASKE
Experimental: In an effort to decipher the mechanism of action of compounds 4 and 8, their effect on glyceraldehyde-3-phosphate dehydrogenase (GAPDH) activity was measured. GAPDH is a glycolytic enzyme which reversibly catalyzes the oxidation of D-glyceraldehyde-3-phosphate to 1,3-diphosphoglycerate. This method utilizes the conversion of NAD^+ to NADH by GAPDH in the presence of glyceraldehydes-3-phosphate and phosphate, which can be measured at an excitation of 560 nm and emission of 590 nm.
Cells were plated at a concentration of 30,000 cells per well and grown overnight. Then they were treated with 100 μM IPA/NO-aspirin and DEA/NO-aspirin for 1, 3, and 6 h followed by which 200 μL of KDalert lysis buffer was added to each well. The plate was incubated at 4° C. for 20 min to lyse the cells. Then 10 μL of cell lysate was transferred to a clean 96 well plate and 90 μL of KDalert mastermix was added to each well and fluorescence was measured at excitation of […]. […] It is also a critical glycolytic enzyme that can play an important role in cancer therapy as solid tumors are known to utilize glycolytic pathways even during normoxia to meet energy requirements (Gatenby et al., Nat. Rev. Cancer, 4(11):891099 (2004)). Thus, inhibition of GAPDH can diminish the […] of tumor cells.

## CC(=O)Oc1ccccc1C(=O)OCON=[N+]([O-])NC(C)C [IPA/NO-aspirin, O^2-(Acetylsalicyloyloxymethyl)-1-(N-isopropylamino)-diazen-1-ium-1,2-diolate]
A549 cells
  toxicity in MTT assay: slightly higher toxicity than compound 8
[1]
  GAPDH Activity: inhibition of GAPDH activity at micro-molar concentrations
